Laboratory results published in patent publication US9073943B2, “Antiviral compounds with a dibenzooxaheterocycle moiety” (Lupin Limited, priority 2012, dated 2015).

Experiments:
[1] = test system: Huh7.5/J6/JFH1/EMCVIRES/hRlucNeo cell line expressing a bicistronic genotype 2a replicon; experiment: HCV replicon assay, genotype 2a (Renilla luciferase readout); assay type: cell-based; conditions: Hepatitis C virus, genotype 2a replicon in Huh 7.5 cells, 72 h, read-out: Gt2a IC50
Source text: (§1) Anti-viral activity of the compounds of the invention was monitored using an HCV replicon assay. The Huh7.5/Con1/SG-Neo(I)hRluc2aUb cell line persistently expressing a bicistronic genotype 1b replicon in Huh 7.5 cells and the Huh7.5/J6/JFH1/EMCVIRES/hRlucNeo cell line expressing a bicistronic genotype 2a replicon in Huh 7.5 cells were obtained from Apath LLC. These cell lines were used to test inhibition of replicon levels by test compound using Renilla luciferase enzyme activity readout as a measure of viral replication efficiency.
(§2) Briefly, 7000-7500 cells were seeded in 96 well black clear bottom plates and allowed to adhere overnight. The next day each compound was added in triplicate to the cells at the desired concentration with a final DMSO concentration of 0.5%. Cells in media alone and cells incubated without drug with 0.5% DMSO served as controls. The plates were incubated for 72 h at 37° C. prior to running the luciferase assay. Enzyme activity was measured using Renilla-Glo Luciferase Assay kit from Promega as per the manufacturer's instructions. The following equation was used to generate the percent inhibition value for each test concentration.
(§3) The IC50 value was determined using GraphPad Prism and the following equation: Y=Bottom+(Top−Bottom)/(1+10^((LogIC50−X)*Hill slope))
(§4) IC50 values/% inhibitions of compounds were determined 2-3 times in the replicon assays.

[2] = test system: Huh7.5/Con1/SG-Neo(I)hRluc2aUb cell line persistently expressing a bicistronic genotype 1b replicon; experiment: HCV replicon assay, genotype 1b (Renilla luciferase readout); assay type: cell-based; conditions: Hepatitis C virus, genotype 1b replicon in Huh 7.5 cells, 72 h, read-out: Gt1b IC50
Source text: as §1, §2, §3, §4

Compound | IC50 [1] [nM] | IC50 [2] [nM]
COC(=O)N[C@H](C(=O)N1CCC[C@H]1c1nc(Cl)c(-c2ccc3c(c2)OCCCOc2cc(-c4[nH]c([C@@H]5CCCN5C(=O)[C@@H](NC(=O)OC)C(C)C)nc4Cl)ccc2-3)[nH]1)C(C)C [Compound 3, dimethyl ((2S,2′S)-((2S,2′S)-2,2′-(5,5′-(7,8-dihydro-6H-dibenzo[f,h][1,5]dioxonine-3,11-diyl)bis(4-chloro-1H-imidazole-5,2-diyl))bis(pyrrolidine-2,1-diyl))bis(3-methyl-1-oxobutane-2,1-diyl))dicarbamate] | 0.037 | 0.018
COC(=O)N[C@H](C(=O)N1CCC[C@H]1c1nc(Cl)c(-c2ccc3c(c2)OCC(C)(C)COc2cc(-c4[nH]c([C@@H]5CCCN5C(=O)[C@@H](NC(=O)OC)C(C)C)nc4Cl)ccc2-3)[nH]1)C(C)C [Compound 7, dimethyl ((2S,2′S)-((2S,2′S)-2,2′-(5,5′-(7,7-dimethyl-7,8-dihydro-6H-dibenzo[f,h][1,5]dioxonine-3,11-diyl)bis(4-chloro-1H-imidazole-5,2-diyl))bis(pyrrolidine-2,1-diyl))bis(3-methyl-1-oxobutane-2,1-diyl))dicarbamate] | 0.249 | 0.004
COC(=O)N[C@H](C(=O)N1CCC[C@H]1c1ncc(-c2ccc3c(c2)OCC(C)(C)COc2cc(-c4[nH]c([C@@H]5CCCN5C(=O)[C@@H](NC(=O)OC)C(C)C)nc4Cl)ccc2-3)[nH]1)C(C)C [Compound 6, methyl ((S)-1-((S)-2-(5-(11-(2-((S)-1-((S)-2-(methoxycarbonyl)amino-3-methylbutanoyl)pyrrolidin-2-yl)-4-chloro-1H-imidazol-5-yl)-7,7-dimethyl-7,8-dihydro-6H-dibenzo[f,h][1,5]dioxonin-3-yl)-1H-imidazol-2-yl)pyrrolidin-1-yl)-3-methyl-1-oxobutan-2-yl)carbamate] | 0.671 | 0.021
COC(=O)N[C@H](C(=O)N1CCC[C@H]1c1ncc(-c2ccc3c(c2)OCCCOc2cc(-c4[nH]c([C@@H]5CCCN5C(=O)[C@@H](NC(=O)OC)C(C)C)nc4Cl)ccc2-3)[nH]1)C(C)C [Compound 2, methyl ((S)-1-((S)-2-(5-(11-(2-((S)-1-((S)-2-(methoxycarbonyl)amino-3-methylbutanoyl)pyrrolidin-2-yl)-1H-imidazol-5-yl)-7,8-dihydro-6H-dibenzo[f,h][1,5]dioxonin-3-yl)-4-chloro-1H-imidazol-2-yl)pyrrolidin-1-yl)-3-methyl-1-oxobutan-2-yl)carbamate] | 0.053 | 0.051
